# In PubChem BioAssay AID1259407 (Chemical Carcinogenesis Research Information System (CCRIS), 2018):
# Active and inactive are the calls of the source. No rule for the calls is given here.
# Tested on: CCRIS mutagenicity, Ames/micronucleus/aberration tests
# Assay: CCRIS mutagenicity studies
# [1] = Test System: AMES SALMONELLA TYPHIMURIUM, Strain/Indicator: TA98, Metabolic Activation: HAMSTER, LIVER, S-9, AROCLOR 1254 (10%), Method: PREINCUBATION
# [2] = Test System: AMES SALMONELLA TYPHIMURIUM, Strain/Indicator: TA98, Metabolic Activation: RAT, LIVER, S-9, AROCLOR 1254 (10%), Method: PREINCUBATION
# [3] = Test System: AMES SALMONELLA TYPHIMURIUM, Strain/Indicator: TA100, Metabolic Activation: NONE, Method: PREINCUBATION
# [4] = Test System: AMES SALMONELLA TYPHIMURIUM, Strain/Indicator: TA1535, Metabolic Activation: HAMSTER, LIVER, S-9, AROCLOR 1254 (10%), Method: PREINCUBATION
# [5] = Test System: AMES SALMONELLA TYPHIMURIUM, Strain/Indicator: TA1535, Metabolic Activation: NONE, Method: PREINCUBATION
# [6] = Test System: AMES SALMONELLA TYPHIMURIUM, Strain/Indicator: TA1535, Metabolic Activation: RAT, LIVER, S-9, AROCLOR 1254 (10%), Method: PREINCUBATION
# [7] = Test System: AMES SALMONELLA TYPHIMURIUM, Strain/Indicator: TA1537, Metabolic Activation: HAMSTER, LIVER, S-9, AROCLOR 1254 (10%), Method: PREINCUBATION
# [8] = Test System: AMES SALMONELLA TYPHIMURIUM, Strain/Indicator: TA1537, Metabolic Activation: NONE, Method: PREINCUBATION
# [9] = Test System: AMES SALMONELLA TYPHIMURIUM, Strain/Indicator: TA1537, Metabolic Activation: RAT, LIVER, S-9, AROCLOR 1254 (10%), Method: PREINCUBATION
# [10] = Test System: AMES SALMONELLA TYPHIMURIUM, Strain/Indicator: TA98, Metabolic Activation: RAT, LIVER, S-9, AROCLOR 1254, Method: STANDARD PLATE
# [11] = Test System: AMES SALMONELLA TYPHIMURIUM, Strain/Indicator: TA100, Metabolic Activation: RAT, LIVER, S-9, AROCLOR 1254, Method: STANDARD PLATE
# [12] = Test System: AMES SALMONELLA TYPHIMURIUM, Strain/Indicator: TA1538, Metabolic Activation: RAT, LIVER, S-9, AROCLOR 1254, Method: STANDARD PLATE
# [13] = Test System: AMES SALMONELLA TYPHIMURIUM, Strain/Indicator: TA98, Metabolic Activation: NONE, Method: PREINCUBATION
# [14] = Test System: AMES SALMONELLA TYPHIMURIUM, Strain/Indicator: TA98, Metabolic Activation: NONE, Method: STANDARD PLATE
# [15] = Test System: AMES SALMONELLA TYPHIMURIUM, Strain/Indicator: TA100, Metabolic Activation: NONE, Method: STANDARD PLATE
# [16] = Test System: AMES SALMONELLA TYPHIMURIUM, Strain/Indicator: TA1535, Metabolic Activation: NONE, Method: STANDARD PLATE
smiles,measurement,setting,value
O=C1N(CO)C(O)C(O)N1CO (centres undefined),mutagenic call,"Test System: AMES SALMONELLA TYPHIMURIUM, Strain/Indicator: TA98, Metabolic Activation: HAMSTER, LIVER, AROCLOR 1254 (10%), Method: PREINCUBATION",inactive; negative
same,mutagenic call,[1],inactive; negative
same,mutagenic call,[2],inactive; negative
same,mutagenic call,[3],inactive; negative
same,mutagenic call,[4],inactive; negative
same,mutagenic call,[5],inactive; negative
same,mutagenic call,[6],inactive; negative
same,mutagenic call,[7],inactive; negative
same,mutagenic call,[8],inactive; negative
same,mutagenic call,[9],inactive; negative
O=C(O[C@H]1Cc2c(O)cc(O)cc2O[C@H]1c1ccc(O)c(O)c1)c1cc(O)c(O)c(O)c1,mutagenic call,"Test System: Ames Salmonella typhimurium, Strain/Indicator: TA102, Metabolic Activation: None, Method: Preincubation",inactive; negative
same,mutagenic call,"Test System: Ames Salmonella typhimurium, Strain/Indicator: TA102, Metabolic Activation: Rat, Liver, S-9, Aroclor 1254 in 0.154 M KCl, Method: Preincubation",inactive; negative
Cc1cc2c(c3ccc4ccccc4c13)CCC2=O,mutagenic call,[10],active; positive
same,mutagenic call,"Test System: AMES SALMONELLA TYPHIMURIUM, Strain/Indicator: TA100, Metabolic Activation: RAT, LIVER, MICROSOMES, 15,16-DIHYDRO-11-METHYL-17(H)-CYCLOPENTA[A] PHENANTHREN-17-ONE, Method: STANDARD PLATE",inactive; negative
same,mutagenic call,"Test System: AMES SALMONELLA TYPHIMURIUM, Strain/Indicator: TA100, Metabolic Activation: RAT, LIVER, MICROSOMES, BENZO[A]PYRENE, Method: STANDARD PLATE",active; positive
same,mutagenic call,"Test System: AMES SALMONELLA TYPHIMURIUM, Strain/Indicator: TA100, Metabolic Activation: RAT, LIVER, MICROSOMES, CLOFIBRATE, Method: STANDARD PLATE",inactive; negative
same,mutagenic call,"Test System: AMES SALMONELLA TYPHIMURIUM, Strain/Indicator: TA100, Metabolic Activation: RAT, LIVER, MICROSOMES, DEXAMETHASONE, Method: STANDARD PLATE",inactive; negative
same,mutagenic call,"Test System: AMES SALMONELLA TYPHIMURIUM, Strain/Indicator: TA100, Metabolic Activation: RAT, LIVER, MICROSOMES, ISONIAZID, Method: STANDARD PLATE",inactive; negative
same,mutagenic call,"Test System: AMES SALMONELLA TYPHIMURIUM, Strain/Indicator: TA100, Metabolic Activation: RAT, LIVER, MICROSOMES, PHENOBARBITONE, Method: STANDARD PLATE",inactive; negative
same,mutagenic call,"Test System: AMES SALMONELLA TYPHIMURIUM, Strain/Indicator: TA100, Metabolic Activation: RAT, LIVER, MICROSOMES, Method: STANDARD PLATE",inactive; negative
same,mutagenic call,[11],active; positive
same,mutagenic call,[12],active; positive
CC1=C2C(=CC(C)(C)[C@@H]2O)C(=O)[C@](C)(O)C12CC2,mutagenic call,[13],active; positive
CCCN(CCC)S(=O)(=O)c1ccc(C(=O)O)cc1,mutagenic call,[1],inactive; negative
same,mutagenic call,[13],inactive; negative
same,mutagenic call,[2],inactive; negative
same,mutagenic call,"Test System: AMES SALMONELLA TYPHIMURIUM, Strain/Indicator: TA100, Metabolic Activation: HAMSTER, LIVER, S-9, AROCLOR 1254 (10%), Method: PREINCUBATION",inactive; negative
same,mutagenic call,[3],inactive; negative
same,mutagenic call,"Test System: AMES SALMONELLA TYPHIMURIUM, Strain/Indicator: TA100, Metabolic Activation: RAT, LIVER, S-9, AROCLOR 1254 (10%), Method: PREINCUBATION",inactive; negative
same,mutagenic call,[4],inactive; negative
same,mutagenic call,[5],inactive; negative
same,mutagenic call,[6],inactive; negative
same,mutagenic call,[7],inactive; negative
same,mutagenic call,[8],inactive; negative
same,mutagenic call,[9],inactive; negative
CC(C)NCC(O)COc1cccc2c1C=CC2 (centres undefined),mutagenic call,[14],inactive; negative
same,mutagenic call,[10],inactive; negative
same,mutagenic call,[15],inactive; negative
same,mutagenic call,[11],inactive; negative
same,mutagenic call,"Test System: AMES SALMONELLA TYPHIMURIUM, Strain/Indicator: TA102, Metabolic Activation: NONE, Method: STANDARD PLATE",inactive; negative
same,mutagenic call,"Test System: AMES SALMONELLA TYPHIMURIUM, Strain/Indicator: TA102, Metabolic Activation: RAT, LIVER, S-9, AROCLOR 1254, Method: STANDARD PLATE",inactive; negative
C=CCn1cc2c3c(cccc31)C1C[C@@H](C)CN(C#N)[C@@H]1C2 (some centres undefined),mutagenic call,[11],active; positive
COP(=O)(NC(C)=O)SC (centres undefined),mutagenic call,[14],inactive; negative
same,mutagenic call,[15],inactive; negative
same,mutagenic call,[16],inactive; negative
same,mutagenic call,"Test System: Mouse Lymphoma, Strain/Indicator: L5178Y (TK+/TK-), Metabolic Activation: None, Method: Suspension/Plate",active; positive; dose-dependent increase
same,mutagenic call,"Test System: Mouse Lymphoma, Strain/Indicator: L5178Y (TK+/TK-), Metabolic Activation: Rat, liver S-9, Method: Suspension/Plate",active; positive; dose-dependent increase
O=c1c(O)c(O)c1=O,mutagenic call,"Test System: AMES SALMONELLA TYPHIMURIUM, Strain/Indicator: TA98, Metabolic Activation: HAMSTER, LIVER, S-9, AROCLOR 1254, Method: STANDARD PLATE",inactive; negative
same,mutagenic call,[14],inactive; negative
same,mutagenic call,[10],inactive; negative
same,mutagenic call,"Test System: AMES SALMONELLA TYPHIMURIUM, Strain/Indicator: TA100, Metabolic Activation: HAMSTER, LIVER, S-9, AROCLOR 1254, Method: STANDARD PLATE",inactive; negative
same,mutagenic call,[15],inactive; negative
same,mutagenic call,[11],inactive; negative
same,mutagenic call,"Test System: AMES SALMONELLA TYPHIMURIUM, Strain/Indicator: TA1535, Metabolic Activation: HAMSTER, LIVER, S-9, AROCLOR 1254, Method: STANDARD PLATE",inactive; negative
same,mutagenic call,[16],inactive; negative
same,mutagenic call,"Test System: AMES SALMONELLA TYPHIMURIUM, Strain/Indicator: TA1535, Metabolic Activation: RAT, LIVER, S-9, AROCLOR 1254, Method: STANDARD PLATE",inactive; negative
same,mutagenic call,"Test System: AMES SALMONELLA TYPHIMURIUM, Strain/Indicator: TA1537, Metabolic Activation: HAMSTER, LIVER, S-9, AROCLOR 1254, Method: STANDARD PLATE",inactive; negative
same,mutagenic call,"Test System: AMES SALMONELLA TYPHIMURIUM, Strain/Indicator: TA1537, Metabolic Activation: NONE, Method: STANDARD PLATE",inactive; negative
same,mutagenic call,"Test System: AMES SALMONELLA TYPHIMURIUM, Strain/Indicator: TA1537, Metabolic Activation: RAT, LIVER, S-9, AROCLOR 1254, Method: STANDARD PLATE",inactive; negative
same,mutagenic call,"Test System: AMES SALMONELLA TYPHIMURIUM, Strain/Indicator: TA1538, Metabolic Activation: HAMSTER, LIVER, S-9, AROCLOR 1254, Method: STANDARD PLATE",inactive; negative
same,mutagenic call,"Test System: AMES SALMONELLA TYPHIMURIUM, Strain/Indicator: TA1538, Metabolic Activation: NONE, Method: STANDARD PLATE",inactive; negative
same,mutagenic call,[12],inactive; negative
same,mutagenic call,"Test System: MOUSE LYMPHOMA, Strain/Indicator: L5178Y (TK+/TK-), Metabolic Activation: NONE, Method: SUSPENSION/PLATE",inactive; negative. reevaluation of results: negative
same,mutagenic call,"Test System: MOUSE LYMPHOMA, Strain/Indicator: L5178Y (TK+/TK-), Metabolic Activation: RAT, LIVER, S-9, AROCLOR 1254, Method: SUSPENSION/PLATE",inactive; negative. reevaluation of results: negative
